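Each compound was tested at five concentrations against cells in 96-well plates for 48 hours. At the GI50, growth is halved.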 Active and inactive are the calls of the source. No stated cut-off is given here; in the data, active = GI50 up to about 1.1 µM and inactive = higher.
Columns and labels:
Experiment in all cases: NCI-60 cell line screen, 48 h
[1] = tested on: A498
[2] = tested on: ACHN
[3] = tested on: DU-145
[4] = tested on: HL-60
[5] = tested on: HOP-62
[6] = tested on: HOP-92
[7] = tested on: HT-29
[8] = tested on: M14
[9] = tested on: MCF7
[10] = tested on: MDA-MB-435
[11] = tested on: NCI-H460
[12] = tested on: OVCAR-3
[13] = tested on: OVCAR-8
[14] = tested on: RPMI-8226
[15] = tested on: SN12C
[16] = tested on: SNB-19
[17] = tested on: UACC-257
[18] = tested on: UACC-62
[19] = tested on: K562
[20] = tested on: SK-OV-3

SMILES | GI50 [1] | GI50 [2] | GI50 [3] | GI50 [4] | GI50 [5] | GI50 [6] | GI50 [7] | GI50 [8] | GI50 [9] | GI50 [10] | GI50 [11] | GI50 [12] | GI50 [13] | GI50 [14] | GI50 [15] | GI50 [16] | GI50 [17] | GI50 [18] | GI50 [19] | GI50 [20]
Clc1c2nc3ccccc3c-2[nH]c2ccccc12 | 43 µM (inactive) | 21.3 µM (inactive) | 22 µM (inactive) | 15.6 µM (inactive) | 47.1 µM (inactive) | > 100 µM (inactive) | 4.3 µM (inactive) | 36.2 µM (inactive) | 6.28 µM (inactive) | 5.11 µM (inactive) | 27.2 µM (inactive) | 69.7 µM (inactive) | 29 µM (inactive) | 7.96 µM (inactive) | 32.7 µM (inactive) | > 100 µM (inactive) | 50.2 µM (inactive) | 48.8 µM (inactive) | – | –
COC(=O)c1c(C)c2c(c(C)c1O)OC(=O)c1c(C)cc(O)c(C=O)c1O2 | – | > 100 µM (inactive) | > 100 µM (inactive) | > 100 µM (inactive) | > 100 µM (inactive) | > 100 µM (inactive) | > 100 µM (inactive) | > 100 µM (inactive) | > 100 µM (inactive) | > 100 µM (inactive) | > 100 µM (inactive) | > 100 µM (inactive) | > 100 µM (inactive) | > 100 µM (inactive) | > 100 µM (inactive) | > 100 µM (inactive) | > 100 µM (inactive) | 45.3 µM (inactive) | > 100 µM (inactive) | 20 µM (inactive)
O=C(CCC(=O)CC(O)(C(F)(F)F)C(F)(F)F)CC(O)(C(F)(F)F)C(F)(F)F | 0.151 µM (active) | 33.7 µM (inactive) | 53.1 µM (inactive) | 33.7 µM (inactive) | 52.5 µM (inactive) | 20.7 µM (inactive) | 29.7 µM (inactive) | 41.2 µM (inactive) | 37.8 µM (inactive) | 47.9 µM (inactive) | > 10 µM (inactive) | – | 42.4 µM (inactive) | 26.7 µM (inactive) | 42.6 µM (inactive) | 24 µM (inactive) | 34.4 µM (inactive) | 31.7 µM (inactive) | 33.4 µM (inactive) | > 100 µM (inactive)
CCN(CC)CCn1nc(N)c2nc3cc(Cl)ccc3nc21 | > 100 µM (inactive) | 37.5 µM (inactive) | > 100 µM (inactive) | 61.4 µM (inactive) | > 100 µM (inactive) | > 100 µM (inactive) | 35.3 µM (inactive) | 37.8 µM (inactive) | 36.1 µM (inactive) | 97.9 µM (inactive) | 34.3 µM (inactive) | – | 42.4 µM (inactive) | 89.9 µM (inactive) | 45.1 µM (inactive) | 53.5 µM (inactive) | 37.5 µM (inactive) | 45.9 µM (inactive) | 40.7 µM (inactive) | > 100 µM (inactive)
COc1ccc(CC2OC3(CCCCC3)CC3CCCCN32)cc1 (stereo not drawn) | – | > 100 µM (inactive) | > 100 µM (inactive) | > 100 µM (inactive) | > 100 µM (inactive) | 98.9 µM (inactive) | 57.4 µM (inactive) | 76.6 µM (inactive) | 72.9 µM (inactive) | 50 µM (inactive) | > 100 µM (inactive) | 46 µM (inactive) | 40.9 µM (inactive) | 23.4 µM (inactive) | > 100 µM (inactive) | > 100 µM (inactive) | > 100 µM (inactive) | > 100 µM (inactive) | 27.1 µM (inactive) | > 100 µM (inactive)
COc1cc(C2SC(=N)Nc3c2c(C)nn3C(=O)c2ccc(Cl)cc2)ccc1O (stereo not drawn) | – | > 10 µM (inactive) | > 10 µM (inactive) | > 10 µM (inactive) | > 10 µM (inactive) | > 10 µM (inactive) | > 10 µM (inactive) | > 10 µM (inactive) | > 10 µM (inactive) | > 10 µM (inactive) | > 10 µM (inactive) | > 10 µM (inactive) | > 10 µM (inactive) | > 10 µM (inactive) | > 10 µM (inactive) | > 10 µM (inactive) | > 10 µM (inactive) | > 10 µM (inactive) | > 10 µM (inactive) | > 10 µM (inactive)
Cc1ccc(C2NC(=N)NC3=C2CCOc2c3ccc3ccccc23)cc1 (stereo not drawn) | 17.3 µM (inactive) | – | 7.35 µM (inactive) | 2.96 µM (inactive) | 4.94 µM (inactive) | 5.66 µM (inactive) | 1.81 µM (inactive) | 1.76 µM (inactive) | 4.91 µM (inactive) | 2.27 µM (inactive) | 14.2 µM (inactive) | 4.92 µM (inactive) | 33.6 µM (inactive) | 4.42 µM (inactive) | 6.38 µM (inactive) | 29.6 µM (inactive) | 31.3 µM (inactive) | 2.58 µM (inactive) | 2.19 µM (inactive) | 42 µM (inactive)
CCOC(=O)C1C(c2ccccc2)C2(C#N)C(=N)OC1(C)C2(C#N)C#N (stereo not drawn) | 32.7 µM (inactive) | 20.9 µM (inactive) | 30.6 µM (inactive) | 20.7 µM (inactive) | – | 20 µM (inactive) | 16 µM (inactive) | 40.6 µM (inactive) | 46.8 µM (inactive) | 22.4 µM (inactive) | – | – | 24.5 µM (inactive) | 20 µM (inactive) | > 10 µM (inactive) | 40.6 µM (inactive) | 20.5 µM (inactive) | 27 µM (inactive) | 19.8 µM (inactive) | > 100 µM (inactive)
CC1Cc2cc(O)c(O)cc2-c2cc(O)c(O)cc2CC1C (stereo not drawn) | 25 µM (inactive) | 24.6 µM (inactive) | 36.3 µM (inactive) | – | 17.9 µM (inactive) | 15.3 µM (inactive) | 24 µM (inactive) | 11.5 µM (inactive) | 12.1 µM (inactive) | 3.16 µM (inactive) | 20.4 µM (inactive) | 10.9 µM (inactive) | 23.3 µM (inactive) | 32.4 µM (inactive) | 20.9 µM (inactive) | 26.5 µM (inactive) | 12.3 µM (inactive) | 6.07 µM (inactive) | 12.8 µM (inactive) | 36.8 µM (inactive)
CN(CCNC(=O)c1n[nH]c2c1Cc1ccccc1-2)CCNC(=O)c1n[nH]c2c1Cc1ccccc1-2 | 18.6 µM (inactive) | 17.1 µM (inactive) | 15.5 µM (inactive) | 21.1 µM (inactive) | 14.8 µM (inactive) | 17.3 µM (inactive) | 17.7 µM (inactive) | 18.7 µM (inactive) | 19.3 µM (inactive) | 17.5 µM (inactive) | 18.1 µM (inactive) | 14.9 µM (inactive) | 20.9 µM (inactive) | – | 16.7 µM (inactive) | 16.8 µM (inactive) | 18.8 µM (inactive) | 19 µM (inactive) | 18 µM (inactive) | 16.5 µM (inactive)
O=C(O)CCC(NC(=O)c1ccc(Nc2nc3ccccc3nc2C(=O)O)cc1)C(=O)O (stereo not drawn) | – | > 100 µM (inactive) | > 100 µM (inactive) | > 100 µM (inactive) | > 100 µM (inactive) | > 100 µM (inactive) | > 100 µM (inactive) | > 100 µM (inactive) | > 100 µM (inactive) | > 100 µM (inactive) | – | > 100 µM (inactive) | > 100 µM (inactive) | > 100 µM (inactive) | > 100 µM (inactive) | > 100 µM (inactive) | > 100 µM (inactive) | > 100 µM (inactive) | > 100 µM (inactive) | > 100 µM (inactive)
CC1=C(OC2OC(CO)C(O)C(O)C2O)C(=O)C[C@H]2C1=CC[C@@H]1[C@@]2(C)C(=O)C[C@]2(C)[C@@H]([C@@](C)(O)C(=O)CCC(C)(C)O)[C@H](O)C[C@@]12C (stereo partly drawn) | > 100 µM (inactive) | > 100 µM (inactive) | > 100 µM (inactive) | > 100 µM (inactive) | > 100 µM (inactive) | > 100 µM (inactive) | > 100 µM (inactive) | > 100 µM (inactive) | > 100 µM (inactive) | > 100 µM (inactive) | > 100 µM (inactive) | > 100 µM (inactive) | > 100 µM (inactive) | – | > 100 µM (inactive) | > 100 µM (inactive) | > 100 µM (inactive) | > 100 µM (inactive) | > 100 µM (inactive) | > 100 µM (inactive)
CC1=NN=C(N)N/C1=C\C(Sc1ccc(Cl)cc1)c1ccc(Cl)cc1Cl (stereo not drawn) | 19.2 µM (inactive) | 14.2 µM (inactive) | 19.3 µM (inactive) | 3.74 µM (inactive) | 23.8 µM (inactive) | 9.71 µM (inactive) | 3.59 µM (inactive) | 13.6 µM (inactive) | 3.78 µM (inactive) | 18.1 µM (inactive) | 8.77 µM (inactive) | – | 13.5 µM (inactive) | 14.1 µM (inactive) | 24.8 µM (inactive) | 12.4 µM (inactive) | 16.8 µM (inactive) | 14.7 µM (inactive) | 1.28 µM (inactive) | 18.3 µM (inactive)
Cc1ccc(C)c(N2C(=O)C(=O)c3c(C)ccc(C)c32)c1 | – | 17.1 µM (inactive) | 27.7 µM (inactive) | 35.6 µM (inactive) | 40.6 µM (inactive) | 23.6 µM (inactive) | 20.8 µM (inactive) | 17.1 µM (inactive) | 23.4 µM (inactive) | 21.1 µM (inactive) | 37.2 µM (inactive) | 16.3 µM (inactive) | 23.8 µM (inactive) | – | 26.8 µM (inactive) | 40.6 µM (inactive) | 24 µM (inactive) | 16.3 µM (inactive) | 22 µM (inactive) | 47.9 µM (inactive)
CC(C)C1=CC23CCC4C(C)(C(=O)O)CCCC4(C)C2CC1C1C(=O)N(c2cccc(N4C(=O)C5C6CC7C8(C)CCCC(C)(C(=O)O)C8CCC7(C=C6C(C)C)C5C4=O)c2)C(=O)C13 (stereo not drawn) | 13.4 µM (inactive) | 13.4 µM (inactive) | 10.8 µM (inactive) | 9.79 µM (inactive) | 12 µM (inactive) | 23.4 µM (inactive) | 3.84 µM (inactive) | 11.6 µM (inactive) | 4.38 µM (inactive) | 4.02 µM (inactive) | – | 13.1 µM (inactive) | 8.61 µM (inactive) | 9.35 µM (inactive) | 13.3 µM (inactive) | 3.02 µM (inactive) | – | 16.5 µM (inactive) | 7.87 µM (inactive) | –

Reference: ChEMBL document CHEMBL1201862, “PubChem BioAssay data set” (2004)
